Experimental findings from patent US20230079819A1, “COMPOUNDS AND USES THEREOF” (Foghorn Therapeutics Inc., priority 2019, published 2023) are described below.

For experiment [1], the target named is T1, BRM (Homo sapiens, UniProt P51531).
T1 construct: made in house; host or cells: High Five insect cells
The experiment is described as follows: ATPase catalytic activity of BRM, ADP-Glo in vitro biochemical assay. The following applies: ATPase catalytic activity, 30 nM BRM, 400 μM ATP, read-out: BRM IP50.

Experiment [2] deals with T2, BRG-1 (Homo sapiens, UniProt P51532).
T2 construct: made in house; host or cells: High Five insect cells
The experiment is described as follows: ATPase catalytic activity of BRG-1, ADP-Glo in vitro biochemical assay. To be noted: ATPase catalytic activity, 30 nM BRG-1, 400 μM ATP, read-out: BRG1 IP50. (In general: ADP-Glo turns the ADP formed in a reaction into a luminescent signal.)

T1 sequence (P51531 whole entry): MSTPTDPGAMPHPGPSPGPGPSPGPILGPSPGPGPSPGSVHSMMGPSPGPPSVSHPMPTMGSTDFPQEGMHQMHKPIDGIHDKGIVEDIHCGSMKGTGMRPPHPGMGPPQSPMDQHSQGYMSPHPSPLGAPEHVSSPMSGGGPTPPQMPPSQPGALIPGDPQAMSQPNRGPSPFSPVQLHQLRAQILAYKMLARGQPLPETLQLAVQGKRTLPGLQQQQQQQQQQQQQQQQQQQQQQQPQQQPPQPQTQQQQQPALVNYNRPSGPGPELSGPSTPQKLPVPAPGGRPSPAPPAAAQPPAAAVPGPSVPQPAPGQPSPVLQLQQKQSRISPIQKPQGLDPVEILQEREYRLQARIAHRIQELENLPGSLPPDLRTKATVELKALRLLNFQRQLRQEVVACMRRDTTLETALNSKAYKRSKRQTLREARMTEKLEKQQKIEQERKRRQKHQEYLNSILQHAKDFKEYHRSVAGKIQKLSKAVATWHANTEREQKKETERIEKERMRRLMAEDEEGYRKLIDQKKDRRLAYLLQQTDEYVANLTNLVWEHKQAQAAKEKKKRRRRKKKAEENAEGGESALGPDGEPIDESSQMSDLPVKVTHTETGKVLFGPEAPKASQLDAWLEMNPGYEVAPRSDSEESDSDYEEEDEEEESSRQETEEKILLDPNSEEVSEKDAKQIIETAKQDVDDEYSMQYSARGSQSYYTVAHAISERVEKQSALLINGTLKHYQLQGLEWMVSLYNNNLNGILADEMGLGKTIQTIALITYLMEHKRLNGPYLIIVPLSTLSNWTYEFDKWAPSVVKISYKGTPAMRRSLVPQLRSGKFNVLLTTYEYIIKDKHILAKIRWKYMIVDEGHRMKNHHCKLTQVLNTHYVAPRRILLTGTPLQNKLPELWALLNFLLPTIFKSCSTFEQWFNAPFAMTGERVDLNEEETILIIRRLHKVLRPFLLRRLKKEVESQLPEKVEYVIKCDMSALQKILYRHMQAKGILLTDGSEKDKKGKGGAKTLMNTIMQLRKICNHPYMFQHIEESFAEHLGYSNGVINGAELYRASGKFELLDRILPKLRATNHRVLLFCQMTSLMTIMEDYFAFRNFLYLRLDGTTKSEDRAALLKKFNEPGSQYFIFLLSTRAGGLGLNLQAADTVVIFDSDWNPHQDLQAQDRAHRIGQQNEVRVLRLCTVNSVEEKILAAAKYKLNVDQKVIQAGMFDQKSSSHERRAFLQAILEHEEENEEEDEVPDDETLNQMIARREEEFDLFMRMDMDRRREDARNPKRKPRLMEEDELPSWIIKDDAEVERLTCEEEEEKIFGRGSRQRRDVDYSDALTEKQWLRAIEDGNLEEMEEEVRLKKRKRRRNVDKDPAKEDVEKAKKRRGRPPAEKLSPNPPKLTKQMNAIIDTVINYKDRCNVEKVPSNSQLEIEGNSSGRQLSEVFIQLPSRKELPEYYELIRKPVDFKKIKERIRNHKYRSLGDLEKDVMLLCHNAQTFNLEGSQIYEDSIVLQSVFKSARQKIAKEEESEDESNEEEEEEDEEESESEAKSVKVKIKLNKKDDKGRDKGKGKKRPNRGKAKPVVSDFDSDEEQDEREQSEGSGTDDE
T2 sequence (P51532 whole entry): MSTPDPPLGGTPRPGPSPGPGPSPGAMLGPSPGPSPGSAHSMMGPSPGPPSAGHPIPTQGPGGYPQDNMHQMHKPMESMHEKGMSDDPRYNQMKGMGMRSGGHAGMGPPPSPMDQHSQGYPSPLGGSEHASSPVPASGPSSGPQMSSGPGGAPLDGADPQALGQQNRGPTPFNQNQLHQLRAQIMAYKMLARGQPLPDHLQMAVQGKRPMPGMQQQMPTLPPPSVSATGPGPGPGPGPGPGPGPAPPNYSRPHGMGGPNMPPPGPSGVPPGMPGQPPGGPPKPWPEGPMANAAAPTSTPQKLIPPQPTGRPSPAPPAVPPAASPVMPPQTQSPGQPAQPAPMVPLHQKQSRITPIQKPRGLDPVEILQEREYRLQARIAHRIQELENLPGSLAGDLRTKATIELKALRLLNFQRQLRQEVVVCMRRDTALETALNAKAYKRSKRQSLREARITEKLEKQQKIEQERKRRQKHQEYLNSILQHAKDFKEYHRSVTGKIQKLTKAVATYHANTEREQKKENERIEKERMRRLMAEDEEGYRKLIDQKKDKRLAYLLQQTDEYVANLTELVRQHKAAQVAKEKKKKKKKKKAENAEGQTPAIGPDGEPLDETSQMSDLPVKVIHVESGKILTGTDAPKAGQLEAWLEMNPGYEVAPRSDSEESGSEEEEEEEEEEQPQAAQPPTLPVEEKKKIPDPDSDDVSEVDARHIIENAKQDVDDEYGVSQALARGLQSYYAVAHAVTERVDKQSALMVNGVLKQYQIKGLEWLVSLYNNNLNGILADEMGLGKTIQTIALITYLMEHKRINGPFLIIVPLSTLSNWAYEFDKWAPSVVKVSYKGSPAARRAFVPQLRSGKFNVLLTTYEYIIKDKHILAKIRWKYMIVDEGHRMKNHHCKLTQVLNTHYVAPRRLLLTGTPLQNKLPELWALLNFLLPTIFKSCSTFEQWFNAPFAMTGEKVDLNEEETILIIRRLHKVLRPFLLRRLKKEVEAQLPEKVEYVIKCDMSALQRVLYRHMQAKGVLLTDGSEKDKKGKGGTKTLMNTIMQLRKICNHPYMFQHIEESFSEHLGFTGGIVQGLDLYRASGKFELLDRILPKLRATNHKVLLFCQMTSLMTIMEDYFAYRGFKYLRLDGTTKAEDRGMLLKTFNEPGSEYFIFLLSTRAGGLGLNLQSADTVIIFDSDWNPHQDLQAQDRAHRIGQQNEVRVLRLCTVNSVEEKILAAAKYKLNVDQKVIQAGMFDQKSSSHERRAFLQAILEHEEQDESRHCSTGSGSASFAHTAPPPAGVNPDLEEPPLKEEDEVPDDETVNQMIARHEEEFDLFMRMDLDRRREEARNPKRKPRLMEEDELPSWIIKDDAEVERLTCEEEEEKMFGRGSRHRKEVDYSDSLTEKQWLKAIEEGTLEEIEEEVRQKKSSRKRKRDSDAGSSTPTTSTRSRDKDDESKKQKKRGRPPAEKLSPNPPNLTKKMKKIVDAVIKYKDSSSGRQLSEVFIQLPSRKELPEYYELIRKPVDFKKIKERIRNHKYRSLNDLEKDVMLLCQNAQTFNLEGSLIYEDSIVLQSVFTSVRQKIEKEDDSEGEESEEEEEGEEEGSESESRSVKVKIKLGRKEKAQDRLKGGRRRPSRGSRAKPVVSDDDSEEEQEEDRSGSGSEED

On to `CC(C)(C)n1ccc(C(=O)NCC(=O)Nc2nc(-c3cccc(N4CC(O)C4)c3)cs2)c1` [Compound 448], for which the IC50 in experiment [1] and in experiment [2] was greater than 10 nM each time.

With `CS(=O)(=O)n1ccc(C(=O)NCC(=O)Nc2nc(-c3cccc(N4CCC(F)CC4)c3)cs2)c1` [Compound 449], the IC50 in experiment [1] and in experiment [2] was greater than 10 nM each time.

Regarding `CS(=O)(=O)n1ccc(C(=O)NCC(=O)Nc2nc(-c3cccc(N4CCO[C@H](CO)C4)c3)cs2)c1` [Compound 450], the IC50 in experiment [1] and in experiment [2] was greater than 10 nM throughout.

`CS(=O)(=O)n1ccc(C(=O)NCC(=O)Nc2nc(-c3cccc(N4CCN(C5COC5)CC4)c3)cs2)c1` [Compound 451]: the IC50 in experiment [1] and in experiment [2] was greater than 100 nM each time.

`CS(=O)(=O)n1ccc(C(=O)NCC(=O)Nc2nc(-c3cccc(N4CCO[C@@H](CO)C4)c3)cs2)c1` [Compound 452]: the IC50 in experiment [1] and in experiment [2] was greater than 10 nM throughout.

Consider `COC[C@H](NC(=O)c1ccn(C2(C)COC2)c1)C(=O)Nc1nc(-c2ccc3ccn(C)c(=O)c3c2)cs1` [Compound 453], for which the IC50 in experiment [1] and in experiment [2] was greater than 10 nM in each case.

Turning to `CS(=O)(=O)n1ccc(C(=O)NCC(=O)Nc2nc(-c3cc(F)cc(OC4CC4)c3)cs2)c1` [Compound 455], the IC50 in experiment [1] and in experiment [2] was greater than 10 nM in each case.

In the case of `C[C@@H]1CN(c2cccc(-c3csc(NC(=O)CNC(=O)c4ccn(C5(C#N)CC5)c4)n3)n2)C[C@H](C)O1` [Compound 458], the results for the IC50 in experiment [1] and in experiment [2] were less than 10 nM and greater than 10 nM, respectively.

Turning to `COC[C@H](NC(=O)c1ccn(S(C)(=O)=O)c1)C(=O)Nc1nc(-c2cccc(OC(F)(F)F)c2)cs1` [Compound 459], the IC50 in experiment [1] and in experiment [2] was greater than 10 nM throughout.

As for `CS(=O)(=O)n1ccc(C(=O)NCC(=O)Nc2nc(-c3cccc(N4CCC(N)C(F)(F)C4)c3)cs2)c1` (stereo not shown) [Compound 460], the IC50 in experiment [1] and in experiment [2] was greater than 10 nM throughout.

In the case of `COC[C@H](NC(=O)c1ccn(S(C)(=O)=O)c1)C(=O)Nc1nc(-c2cccc(N3CCC3)c2)c(F)s1` [Compound 461], the IC50 in experiment [1] and in experiment [2] was greater than 100 nM in each case.

`COC[C@H](NC(=O)c1ccn(S(C)(=O)=O)c1)C(=O)Nc1nc(-c2cccc(-c3ccn(C)n3)c2)cs1` [Compound 462]: the IC50 in experiment [1] and in experiment [2] was greater than 10 nM throughout.

As to `CS(=O)(=O)n1ccc(C(=O)NCC(=O)Nc2nc(-c3cccc(C(F)(F)F)c3)cs2)c1` [Compound 463], the IC50 in experiment [1] and in experiment [2] was greater than 10 nM throughout.

Turning to `CC(C)(C)n1ccc(C(=O)NCC(=O)Nc2nc(-c3cccc(C4COC4)c3)cs2)c1` [Compound 464], the IC50 in experiment [1] is greater than 10 nM; in experiment [2] it was greater than 100 nM.

In the case of `CS(=O)(=O)n1ccc(C(=O)NCC(=O)Nc2nc(-c3cccc(C4COC4)c3)cs2)c1` [Compound 465], the IC50 in experiment [1] and in experiment [2] was greater than 10 nM throughout.

Take `COC[C@H](NC(=O)c1ccn(S(C)(=O)=O)c1)C(=O)Nc1nc(-c2cccc(C3COC3)c2)cs1` [Compound 466]: the IC50 in experiment [1] and in experiment [2] was greater than 10 nM each time.

Turning to `CS(=O)(=O)n1ccc(C(=O)NCC(=O)Nc2nc(-c3ccc4c(c3)N(C3CCOC3)CC4)cs2)c1` (stereo not shown) [Compound 467], the IC50 in experiment [1] and in experiment [2] was greater than 10 nM in each case.

With `CC(C)N1CCc2ccc(-c3csc(NC(=O)CNC(=O)c4ccn(S(C)(=O)=O)c4)n3)cc21` [Compound 469], the IC50 in experiment [1] and in experiment [2] was greater than 100 nM each time.

As for `Cn1ncc(-c2cccc(-c3csc(NC(=O)CNC(=O)c4ccn(C5(C)COC5)c4)n3)n2)n1` [Compound 470], the results for the IC50 in experiment [1] and in experiment [2] were greater than 10 nM and greater than 100 nM, respectively.

In the case of `C[C@@H]1CN(c2cccc(-c3csc(NC(=O)CNC(=O)c4ccn(S(C)(=O)=O)c4)n3)c2)[C@@H](C)CO1` [Compound 471], the IC50 in experiment [1] and in experiment [2] was greater than 100 nM in each case.

On to `CS(=O)(=O)n1ccc(C(=O)NCC(=O)Nc2nc(-c3cccc(C4CC(F)(F)C4)c3)cs2)c1` [Compound 472], for which the IC50 in experiment [1] and in experiment [2] was greater than 10 nM in each case.

`N#CC1(n2ccc(C(=O)NCC(=O)Nc3nc(-c4cccc(N5CCC5)n4)cs3)c2)CC1` [Compound 473]: the IC50 in experiment [1] is greater than 10 nM; in experiment [2], greater than 100 nM.

Regarding `Cn1ccc2ccc(-c3csc(NC(=O)CNC(=O)c4ccn(C5(C#N)CC5)c4)n3)cc2c1=O` [Compound 475], the IC50 in experiment [1] and in experiment [2] was less than 10 nM each time.

For the molecule `N#CC1(n2ccc(C(=O)NCC(=O)Nc3nc(-c4cccc(N5CCC5)c4)cs3)c2)CC1` [Compound 476], the IC50 in experiment [1] and in experiment [2] was greater than 10 nM in each case.

As for `C[C@@H]1CN(c2cccc(-c3cccc(NC(=O)CNC(=O)c4ccn(S(C)(=O)=O)c4)c3F)c2)C[C@H](C)O1` [Compound 477, N-(2-((3′-(cis-2,6-dimethylmorpholino)-2-fluoro-[1,1′-biphenyl]-3-yl)amino)-2-oxoethyl)-1-(methylsulfonyl)-1H-pyrrole-3-carboxamide], the IC50 in experiment [1] and in experiment [2] was greater than 100 nM in each case.

For the molecule `CC1COc2ccc(-c3csc(NC(=O)CNC(=O)c4ccn(S(C)(=O)=O)c4)n3)cc2N1C` (stereo not shown) [Compound 478], the IC50 in experiment [1] and in experiment [2] was greater than 10 nM throughout.

For the molecule `CO[C@H]1C[C@@H](c2cccc(-c3csc(NC(=O)CNC(=O)c4ccn(S(C)(=O)=O)c4)n3)c2)C1` [Compound 479], the IC50 in experiment [1] and in experiment [2] was greater than 10 nM each time.

Take `CC(C)(C)n1ccc(C(=O)NCC(=O)Nc2nc(-c3cccc(C4CC(F)(F)C4)n3)cs2)c1` [Compound 481]: the IC50 in experiment [1] and in experiment [2] was greater than 100 nM throughout.

In the case of `CC(C)(F)COc1cccc(-c2csc(NC(=O)CNC(=O)c3ccn(S(C)(=O)=O)c3)n2)c1` [Compound 483], the IC50 in experiment [1] and in experiment [2] was greater than 10 nM in each case.

`CC(C)(F)COc1cccc(-c2csc(NC(=O)CNC(=O)c3ccn(C4(C)COC4)c3)n2)c1` [Compound 484]: the IC50 in experiment [1] and in experiment [2] was greater than 100 nM throughout.

As to `COC[C@H](NC(=O)c1ccn(C(C)(C)C)c1)C(=O)Nc1nc(-c2cc(C)c3ccn(C)c(=O)c3c2)cs1` [Compound 485], the IC50 in experiment [1] and in experiment [2] was less than 10 nM throughout.

As to `CS(=O)(=O)n1ccc(C(=O)NCC(=O)Nc2nc(-c3ccc4c(c3)N(CC3COC3)CC4)cs2)c1` [Compound 486], the IC50 in experiment [1] and in experiment [2] was greater than 10 nM in each case.

Regarding `CS(=O)(=O)n1ccc(C(=O)NCC(=O)Nc2nc(-c3ccc4c(c3)N(CC(F)F)CC4)cs2)c1` [Compound 487], the IC50 in experiment [1] and in experiment [2] was greater than 10 nM each time.

Consider `C[C@H](NC(=O)c1ccn(C(C)(C)C)c1)C(=O)Nc1nc(-c2cccc(-c3cnn(C)n3)n2)cs1` [Compound 488], for which the IC50 in experiment [1] and in experiment [2] was greater than 100 nM each time.

As to `CS(=O)(=O)n1ccc(C(=O)NCC(=O)Nc2nc(-c3ccnc(OC4CC4)c3)cs2)c1` [Compound 489], the IC50 in experiment [1] and in experiment [2] was greater than 10 nM each time.

With `Cn1ncc2ccc(-c3csc(NC(=O)CNC(=O)c4ccn(C(C)(C)C)c4)n3)cc2c1=O` [Compound 492], the IC50 in experiment [1] and in experiment [2] was greater than 10 nM throughout.

Consider `Cn1ccc2ccc(-c3csc(NC(=O)CNC(=O)c4ccn(C56CC(C5)C6)c4)n3)cc2c1=O` [Compound 493], for which the IC50 in experiment [1] and in experiment [2] was greater than 100 nM in each case.

For `Cn1cnc2ccc(-c3csc(NC(=O)CNC(=O)c4ccn(C(C)(C)C)c4)n3)cc2c1=O` [Compound 494], the IC50 in experiment [1] and in experiment [2] was greater than 10 nM throughout.

Regarding `CC(C)(C)n1ccc(C(=O)NCC(=O)Nc2nc(-c3cccc(C4(CO)CC4)n3)cs2)c1` [Compound 495], the IC50 was greater than 10 nM in experiment [1] and greater than 100 nM in experiment [2].

Consider `N#CC1(n2ccc(C(=O)NCC(=O)Nc3nc(-c4cccc(OC(F)(F)F)n4)cs3)c2)CC1` [Compound 496], for which the IC50 in experiment [1] and in experiment [2] was greater than 100 nM throughout.

As to `CC(C)(F)COc1cccc(-c2csc(NC(=O)CNC(=O)c3ccn(C4(C#N)CC4)c3)n2)n1` [Compound 498], the IC50 in experiment [1] and in experiment [2] was greater than 100 nM in each case.

Regarding `CS(=O)(=O)n1ccc(C(=O)NCC(=O)Nc2nc(-c3cccc(N4CCC4)c3F)cs2)c1` [Compound 499], the IC50 in experiment [1] and in experiment [2] was less than 10 nM in each case.

As for `CS(=O)(=O)n1ccc(C(=O)NCC(=O)Nc2nc(-c3cccc(OC(F)(F)F)c3F)cs2)c1` [Compound 501], the IC50 in experiment [1] was greater than 10 nM; in experiment [2], greater than 100 nM.

On to `CS(=O)(=O)n1ccc(C(=O)NCC(=O)Nc2nc(-c3cccc(OCC4(F)COC4)c3)cs2)c1` [Compound 502], for which the IC50 in experiment [1] and in experiment [2] was greater than 10 nM each time.

As for `CC(C)(C)n1ccc(C(=O)NCC(=O)Nc2nc(-c3cccc(OC(F)(F)F)n3)cs2)c1` [Compound 503], the IC50 in experiment [1] and in experiment [2] was greater than 100 nM each time.

As for `Cn1ccc2ccc(-c3csc(NC(=O)CNC(=O)c4ccn(C5(C)CCC5)c4)n3)cc2c1=O` [Compound 504], the IC50 in experiment [1] and in experiment [2] was greater than 10 nM throughout.

Turning to `C[C@@]1(n2ccc(C(=O)NCC(=O)Nc3nc(-c4cccc(N5CCC5)c4)cs3)c2)CCOC1` [Compound 505], the IC50 in experiment [1] and in experiment [2] was greater than 100 nM each time.

In the case of `C[C@]1(n2ccc(C(=O)NCC(=O)Nc3nc(-c4cccc(N5CCC5)c4)cs3)c2)CCOC1` [Compound 506], the IC50 in experiment [1] is greater than 10 nM; in experiment [2], greater than 100 nM.

Regarding `CS(=O)(=O)n1ccc(C(=O)NCC(=O)Nc2nc(-c3cccc(OC4CCC4)c3F)cs2)c1` [Compound 507], the IC50 in experiment [1] and in experiment [2] was greater than 10 nM in each case.

For `CC(C)(C)n1ccc(C(=O)NCC(=O)Nc2nc(-c3cccc(OCC4(F)COC4)c3)cs2)c1` [Compound 509], the IC50 in experiment [1] and in experiment [2] was greater than 100 nM each time.
